Measured values reported in patent publication US11649209B2, “Crystalline freebase forms of a biphenyl compound” (THERAVANCE BIOPHARMA R&D IP, LLC, priority 2009, dated 2023).
Values after ≈ are worked out from the molar mass of the structure shown. Where two headings read alike, the source gives them in different places. One block for each molecule: values may come before it.

Tests used:
[1] = Gravimetric vapor sorption assessment; format: physicochemical
Procedure: Gravimetric vapor sorption (GVS) studies were performed using a Surface
Measurements System DVS-1 instrument for generation of full sorption isotherm using water vapor perfusion at 25° C. A sample size of approximately 7 mg was placed into a clean and dry tared sample mesh pan and weighed using the internal balance. The target relative humidity (RH) ranges were from 30% to 90%, then 90% to 0% and 0% to 30% with 10% steps. The point of equilibrium was automatically determined using a 0.02 dm/dt asymptote setting.

[2] = Storage stability of micronized material (PXRD, DSC); format: physicochemical; settings: 3 months at 40° C./20% RH, 50° C./ambient humidity
Procedure: For reference, the particle size of the input crystalline freebase Form III was X10=5.58 μm X50=18.2 μm, and X90=49.7 μm. Micronization yielded particles in the respirable size range.
There was an additional small thermal event in the micronized material at 87° C., likely due to crystallization.

Solution stability = format: physicochemical
Procedure: The crystalline freebase Form III solutions are stable in pH 4 and pH 6 buffers for up to 7 days at 50° C. or exposed to light. The solutions are stable in water and saline for 7 days at room temperature, protected from light.

[3] = Micronization, particle size by laser light diffraction; format: physicochemical
Excerpt: Samples of the crystalline freebase Form III were micronized using either an APTM 4″ micronizer and the particle size determined buy laser light diffraction.

pH solubility = format: physicochemical; settings: for solubility: thermodynamic from solid
Procedure: Solubility in water is 0.66 mg/mL with a natural pH of 8.9.

[4] = Exposure to atmospheric moisture, elevated temperature and humidity; format: physicochemical
[5] = target: T1, M3 muscarinic receptor subtype (Homo sapiens, UniProt P20309); test: Radioligand binding assay ([3H]-NMS displacement) on muscarinic receptor subtypes; settings: this or a similar assay
T1 construct: expressed in transfected cells
Procedure: CHO cell lines stably expressing cloned human hM1, hM2, hM3 and hM4 muscarinic receptor subtypes, respectively, were grown to near confluency in medium consisting of HAM's F-12 supplemented with 10% FBS and 250 μg/mL Geneticin. The cells were grown in a 5% CO2, 37° C. incubator and lifted with 2 mM EDTA in dPBS. Cells were collected by 5 minute centrifugation at 650×g, and cell pellets were either stored frozen at −80° C. or membranes were prepared immediately. For membrane preparation, cell pellets were resuspended in lysis buffer and homogenized with a Polytron PT-2100 tissue disrupter (Kinematica AG; 20 seconds×2 bursts). Crude membranes were centrifuged at 40,000×g for 15 minutes at 4° C. […] The protein concentration of the membrane suspension was determined by the method described in Lowry, O. et al.,Journal of Biochemistry 193:265 (1951). […]
Radioligand binding assays were performed in 96-well microtiter plates in a total assay volume of […]. […] Filter plates were rinsed three times with wash buffer (10 mM HEPES) to remove unbound radioactivity. […] The plates were then counted in a PerkinElmer Topcount liquid scintillation counter (PerkinElmer Inc., Wellesley, Mass.). Binding data were analyzed by nonlinear regression analysis with the GraphPad Prism Software package (GraphPad Software, Inc., San Diego, Calif.) using the one-site competition model. […]

hM3 receptor = target: T2, hM3 receptor (Homo sapiens, UniProt P20309); test: Blockade of agonist-mediated calcium release via FLIPR; format: cell-based; settings: CHO cells stably expressing the hM3 receptor
T2 construct: expressed in transfected cells
Excerpt: Muscarinic receptor subtypes (M1, M3 and M5 receptors), which couple to Gq proteins, activate the phospholipase C (PLC) pathway upon agonist binding to the receptor. As a result, activated PLC hydrolyzes phosphatyl inositol diphosphate (PIP2) to diacylglycerol (DAG) and […] (IP3), which in turn generates calcium release from intracellular stores, i.e., endoplasmic and sarcoplasmic reticulum. The FLIPR (Molecular Devices, Sunnyvale, Calif.) assay capitalizes on this increase in intracellular calcium by using a calcium sensitive dye (Fluo-4AM, Molecular Probes, Eugene, Oreg.) that fluoresces when free calcium binds. This fluorescence event is measured in real time by the FLIPR, which detects the change in fluorescence from a monolayer of cells cloned with human M1 and M3, and chimpanzee M5 receptors. Antagonist potency can be determined by the ability of antagonists to inhibit agonist-mediated increases in intracellular calcium. […]
To determine antagonist potency, the dose-dependent stimulation of intracellular Ca^2+ release for oxotremorine is first determined so that antagonist potency can later be measured against oxotremorine stimulation at an EC90 concentration. […]
The change of fluorescence is expressed as maximum fluorescence minus baseline fluorescence for each well. […]

MCh response = test: Rat Einthoven assay (bronchoprotection against MCh); format: in vivo; settings: for ID50: 1.5 hrs post-dose, inhalation
Procedure: All test compounds are diluted in sterile water and are dosed via the inhalation route (IH). […] Each test compound solution is nebulized over a 10 minute time period in a pie shaped dosing chamber capable of holding six rats. At predetermined time points after inhalation of compound, the Einthoven assay is performed. […] The jugular vein is catheterized with saline filled polyethylene catheters (PE-50) and used to infuse MCh. The trachea is then dissected and cannulated with a 14G needle and used for rat ventilation during pulmonary evaluation. Once surgery is complete, rats are ventilated using a piston respirator set at a stroke volume of 1 ml/100 g body weight but not exceeding 2.5 ml volume, and at a rate of 90 strokes per minute. The changes in pressure that occur with each breath are measured. […] The MCh is infused for 2.5 minutes from a syringe pump at a rate of 2 mL/kg/min. The animals are euthanized upon completion of the studies. Changes in ventilation pressure (cm H2O) in treated animals are expressed as % inhibition of MCh response relative to control animals.

[6] = test system: pilocarpine-induced salivation; test: Rat antisialagogue assay; format: in vivo; settings: evaluated at 1, 6 and 24 hr post-dose
Procedure: Rats (Sprague-Dawley, male, 250-350 g) are dosed, anesthetized and cannulated as described for Assay 3. At predetermined time points and after surgery, animals are placed on their dorsal side at a 20° incline with their head in a downward slope. A pre-weighed gauze pad is inserted in the animal's mouth and the muscarinic agonist pilocarpine (PILO) (3 mg/kg, iv.) is administered. Saliva produced during 10 minutes post-PILO is measured gravimetrically by determining the weight of the gauze pad before and after PILO. Antisialagogue effects are expressed as % inhibition of salivation relative to control animals.
The rat antisialagogue assay was developed to assess systemic exposure and calculate the lung selectivity index (LSI) of test compounds. The standard, tiotropium, was evaluated in this model at 1, 6, and 24 hr post-dose. […] This finding is consistent with the peak effects observed in the Einthoven assay.
This model is a modified version of the procedure described in Rechter, “Estimation of anticholinergic drug effects in mice by antagonism against pilocarpine-induced salivation” Ata Pharmacol Toxicol 24:243-254 (1996). The mean weight of saliva in vehicle-treated animals, at each pre-treatment time, is calculated and used to compute % inhibition of salivation, at the corresponding pre-treatment time, at each dose.

[7] = input material before micronization

T2 sequence (P20309 whole entry): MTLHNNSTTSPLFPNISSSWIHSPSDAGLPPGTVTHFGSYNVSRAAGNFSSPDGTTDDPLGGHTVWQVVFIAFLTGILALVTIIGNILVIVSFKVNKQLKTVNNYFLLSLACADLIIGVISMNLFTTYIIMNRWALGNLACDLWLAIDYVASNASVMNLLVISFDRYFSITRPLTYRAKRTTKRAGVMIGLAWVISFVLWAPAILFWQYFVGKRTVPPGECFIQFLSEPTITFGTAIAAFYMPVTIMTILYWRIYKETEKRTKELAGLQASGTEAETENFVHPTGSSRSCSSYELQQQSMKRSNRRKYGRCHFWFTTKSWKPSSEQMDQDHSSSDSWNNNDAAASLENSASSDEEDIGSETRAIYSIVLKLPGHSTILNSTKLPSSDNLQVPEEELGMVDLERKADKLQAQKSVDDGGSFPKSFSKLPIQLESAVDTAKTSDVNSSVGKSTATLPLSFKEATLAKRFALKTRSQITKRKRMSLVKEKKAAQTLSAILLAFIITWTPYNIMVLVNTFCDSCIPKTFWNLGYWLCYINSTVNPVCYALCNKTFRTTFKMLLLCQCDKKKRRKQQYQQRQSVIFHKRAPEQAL
T1 sequence (P20309 whole entry): as above

- reversible water uptake ([1]; between 0 and 90% RH at 25° C.): < 2 % w/w
- reversible water uptake ([1]; between 0 and 90% relative humidity at 25° C.): < 2 % wt/wt
- change in PXRD after storage ([2]; 40° C./75% RH (uncapped)): No changes were observed
- amorphous content by DSC after storage ([2]; 40° C./75% RH naked): no evidence of amorphous content
- solution stability in water and saline (Solution stability; 7 days at room temperature, protected from light): stable
- solution stability in buffers (Solution stability; pH 4 and pH 6 buffers, up to 7 days at 50° C. or exposed to light): stable
- Particle size X10 [3, 7]: 5.58 μm
- Particle size X50 [3, 7]: 18.2 μm
- Particle size X90 [3, 7]: 49.7 μm
- Particle size X10 ([3]; micronized material): 1.27 μm
- Particle size X50 ([3]; micronized material): 2.69 μm
- Particle size X90 ([3]; micronized material): 5.25 μm
- solubility (pH solubility; aqueous buffer, in media up to pH 7, read-out: Solubility): > 2000 µg/mL
- natural pH in water (pH solubility; at solubility in water): 8.9
- solubility (pH solubility; simulated lung fluid, fassgf or other biorelevant, no change between 4 hour and 24 hour measurements, read-out: Solubility in simulated lung fluid): 460 µg/mL (≈ 770 µM)
- solubility (pH solubility; water, pH 8.9, water, natural pH of 8.9, read-out: Solubility in water): 660 µg/mL (≈ 1100 µM)
- stability upon exposure to elevated temperature and humidity [4]: stable
SMILES: CN(CCN1CCC(OC(=O)Nc2ccccc2-c2ccccc2)CC1)C(=O)c1ccc(CN2CCC(C(N)=O)CC2)cc1 [Form III, Biphenyl-2-ylcarbamic Acid 1-(2-{[4-(4-Carbamoylpiperidin-1-ylmethyl)benzoyl]methylamino}ethyl)piperidin-4-yl Ester]

- Ki [5]: < 5 nM
- Ki (hM3 receptor): < 5 nM
SMILES: CN(CCN1CCC(OC(=O)Nc2ccccc2-c2ccccc2)CC1)C(=O)c1ccc(CN2CCC(C(N)=O)CC2)cc1 [compound of formula I, biphenyl-2-ylcarbamic acid 1-(2-{[4-(4-carbamoylpiperidin-1-ylmethyl)benzoyl]methylamino}ethyl)piperidin-4-yl ester]

SMILES: C[N+]1(C)CCC(OC(=O)C(O)(c2ccccc2)C2CCCC2)C1 (centres unmarked) [glycopyrrolate]
- ID50 (MCh response): 15 µg/mL

SMILES: CC(C)[N+]1(C)[C@@H]2CC[C@H]1C[C@@H](OC(=O)C(CO)c1ccccc1)C2 (some centres unmarked) [ipratropium]
- fold less potent 6-hr post-dose compared to 1.5 hr potency (MCh response; 10 and 30 μg/ml, 6 hr post-dose): about 3 fold
- ID50 (MCh response): 4.4 µg/mL

SMILES: C[N+]1(C)[C@@H]2C[C@@H](OC(=O)C(O)(c3cccs3)c3cccs3)C[C@H]1[C@@H]1O[C@@H]12 [tiotropium]
- ID50 (MCh response): 6 µg/mL
- fold more potent at 6 hr and 24 hr compared to 1.5 hr potency (MCh response; 6 hr and 24 hr post-dose): about 2 fold
- time of peak bronchoprotection post-dose (MCh response; slow onset of effect): 6 h
- time post dose of highest potency at inhibiting pilocarpine-induced salivation [6]: 6 h
